Patent US20110306570A1, “Na/K-Atpase Expression as an Indicator for the Treatment of Cancer” (UNIVERSITY OF TOLEDO, priority 2008, published 2011)
Entries after “also recorded” stand apart in the source; their conditions may differ.

Key:
Na/K-ATPase α1 [1] = biological target: T1, Na/K-ATPase α1 (Sus scrofa, UniProt P05024); test: Na/K-ATPase α1 degradation with cycloheximide, LLC-PK1 cells; assay type: cell-based, pig; details: cycloheximide pre-treatment, 10 nM ouabain for 6, 16 and 24 h
T1 construct: endogenous in cells; host or cells: LLC-PK1 (ATCC) and its caveolin-1 knock-down line C2-9
Source text: Cells without any treatment or only treated with CHX were used as control. The cells were collected at different time points and lysed in RIPA buffer. Equal amount of protein was loaded to analyze the Na/K-ATPase by Western blot. The representative Western blot and the quantification data from 4 experiments were shown. The Na/K-ATPase α1 amount at each time point was normalized against the control at the same time point.

Na/K-ATPase β1 = Na/K-ATPase β1 expression by Western blot, LLC-PK1 cells; assay type: cell-based, pig; details: 10 nM ouabain, 24 h
Source text: Na/K-ATPase, but also in the formation of tight junctions and in suppression of tumor cell growth.

Na/K-ATPase α1 mRNA = Na/K-ATPase α1 mRNA by RT-PCR, LLC-PK1 cells; assay type: cell-based, pig; details: 10 nM ouabain, 24 h
Experimental: Total RNA was extracted and applied for RT-PCR to probe Na/K-ATPase α1 as described in the Experimental Procedures section.
Quantitative RT-PCR: The cells were seeded in 6-cm dishes and serum-starved for 24 h after the confluence reached 90%. […] Total RNA was extracted using TRIzol and subjected to quantitative RT-PCR analysis. The assays were performed on the AB 7500 real time PCR system with the following protocol: 1 cycle (6 min at 95° C.), 40 cycles (30 s at 95° C., 30 s at 52° C., 30 s at 72° C., and 1 min at 85° C.), followed by a dissociation stage to ensure a single product. The reactions are in a total volume of 25 μl, including 1.25 µl of Sybr Green (Invitrogen), 0.125 µl of DNA polymerase (Denville), 2.5 µl of dNTP (Invitrogen), 10 ng of cDNA. Primer pairs were used at 5 μM concentration, and the sequences are:
The relative Na/K-ATPase al gene expression was calculated by comparative threshold (CT) method (ΔΔCT). To normalize the difference amounts of cDNA, GAPDH was used as an internal control.

Na/K-ATPase α1 [2] = biological target: T2, Na/K-ATPase α1 (Homo sapiens, UniProt P05023); test: Na/K-ATPase α1 expression by Western blot, DU145 cells; assay type: cell-based; parameters: endogenous in cells; host or cells: BT20, DU145, MDA-MB-435s; details: ouabain 24 h or 72 h exposure
DU145 cells [3] = test: MTT cell growth assay, DU145 cells; assay type: cell-based, human; details: 24 h
Experimental: (§1) FIG. 1A: LLC-PK1 cells, BT20 cells, and DU145 cells were subcultured in 96-well plates (10,000 cells/well) and serum starved. […] Cells were solublized by adding 100 μl/well detergent provided by ATCC after 90 min of incubation and OD570 was then measured.
(§2) MTT assay for measuring cell proliferation: Cells were sub-cultured in 96 well plates at 10,000 cells/well in 100 μl culture medium. […] Ten μl MTT reagent (3-4,5-dimethylthiazol-2-yl)-2,5-diphenyltetrazolium bromide) was added to each well for 90 min. The formazan crystal was dissolved with detergent and the OD value was measured at 570 nm.

PY-17 cells = test: MTT cell growth assay, Na/K-ATPase knock-down PY-17 cells; assay type: cell-based, pig
Experimental: FIG. 3B: The Na/K-ATPase knock-down cells (PY17) were treated with different digitalis compounds and the cell growth was measured by MTT assay.
as §2

Akt [4] = test: Akt phosphorylation (pAkt) by Western blot, BT20 cells; assay type: cell-based, human; details: ouabain 15 min
A4-11 cells = test: MTT cell growth assay, Na/K-ATPase knock-down A4-11 cells; assay type: cell-based, pig; details: ouabain, 16 h
Experimental: as §2

Na/K-ATPase α1 [5] = biological target: T2, Na/K-ATPase α1; test: Na/K-ATPase α1 expression, MDA-MB-435s cells; assay type: cell-based; parameters: endogenous in cells; host or cells: MDA-MB-435s; details: 5 nM ouabain, 24 h, N=3, P<0.05
Source text: A significant reduction in α1 expression was detected (82±2% of control, N=3, P<0.05). Thus, ouabain-induced changes in α1 expression are clearly correlated with its effects on cell growth.

DU145 cells [6] = test: Cell growth curve (cell counting), DU145 cells; assay type: cell-based, human; details: 10 nM ouabain
Experimental: FIG. 1B: The above three cell lines were subcultured in 12-well plates (50,000 cells/well) and serum starved.
Cell growth curve and cell cycle measurement: Cells were sub-cultured in 12 well plates at 50,000/well in 1 ml culture medium for 24 h. […] At each indicated time point, three wells of control or treated cells were trypsinized and counted. For cell cycle measurement, cells were trypsinized and re-suspended in Citrate buffer (8.55% sucrose, 1.18% Na citrated, 5% DMSO, pH 7.6), and stained with propidium iodide (PI). The stained cells were then analyzed by Flow Cytometry.

Akt [7] = test: Akt phosphorylation (pAkt) by Western blot, LLC-PK1 cells; assay type: cell-based, pig; details: ouabain 15 min
LLC-PK1 cells = test: MTT cell growth assay, LLC-PK1 cells; assay type: cell-based, pig
Experimental: as §1
Cell growth was then measured using MTT assay.
as §2

Na/K-ATPase α1 [8] = biological target: T2, Na/K-ATPase α1; test: Na/K-ATPase α1 endocytosis by confocal immunostaining, DU145 cells; assay type: cell-based; parameters: endogenous in cells; host or cells: DU145; details: 10 nM ouabain
Experimental: Na/K-ATPase al was immunostained and visualized using Leica confocal microscope. The red arrows indicate the endocytosed vesicles containing Na/K-ATPase α1.
The cells were fixed with ice-cold methanol for 15 min and blocked with Signal Enhancer from Invitrogen. Monoclonal anti-Na/K-ATPase α1 antibody was then incubated with the cells overnight at 4° C. After 3 washes, a secondary Alexa 488-conjugated anti-mouse antibody was added and incubated for 2 h at room temperature. The coverslip was washed, mounted and imaged using a Leica confocal microscope.

C2-9 cells = test: MTT cell growth assay, caveolin-1 knock-down C2-9 cells; assay type: cell-based, pig; details: C2-9 caveolin-1 knockdown cells
Experimental: as §2

With `C[C@@H]1O[C@@H](O[C@H]2C[C@@H](O)[C@]3(CO)[C@H]4[C@H](O)C[C@]5(C)[C@@H](C6=CC(=O)OC6)CC[C@]5(O)[C@@H]4CC[C@]3(O)C2)[C@H](O)[C@H](O)[C@H]1O` [ouabain] the “degradation of Na/K-ATPase α1 subunit” value (Na/K-ATPase α1 [1]) was “more degradation of al subunit; also recorded: more degradation of the a1 subunit”, the “Na/K-ATPase β1 expression” value (Na/K-ATPase β1) was “modest increase in β1 expression” and the “levels of α1 mRNA” value (Na/K-ATPase α1 mRNA) was “no effect on levels of α1 mRNA”. For the same molecule, the “cellular amount of Na/K-ATPase α1” value (Na/K-ATPase α1 [2]) was “reduced the cellular amount of α1”, the “effect on cell growth (MTT)” value (DU145 cells [3]; 10-50 nM ouabain) was “significant inhibition of cell growth” and the “stimulatory effect on cell growth (MTT)” value (DU145 cells [3]; different concentrations of ouabain) was “failed to detect any stimulatory effect”. The “growth stimulation (MTT)” value (PY-17 cells; PY17 cells, ouabain, 16 h) was “No growth stimulation was detected”, the “reduction in cell growth (MTT)” value (PY-17 cells; PY-17 cells, 10 nM ouabain) was “more than 30%” and the Akt phosphorylation (Akt [4]) was “failed to do so”. For the same molecule, the “growth stimulation (MTT)” value (A4-11 cells) was “No growth stimulation was detected”, the “Na/K-ATPase α1 expression” value (Na/K-ATPase α1 [5]) was 82±2 % of control and the “block of cell growth (cell counting)” value (DU145 cells [6]) was “completely block the growth”. For the same molecule, the Akt phosphorylation (Akt [7]) was “stimulated Akt phosphorylation”, the “cell growth with ouabain in rapamycin pre-treated cells (MTT)” value (LLC-PK1 cells; LLC-PK1 cells pre-treated with rapamycin, 10 nM ouabain) was “significant inhibition of cell growth; also recorded: significant inhibition of cell proliferation” and the “effect on cell growth (MTT)” value (LLC-PK1 cells; LLC-PK1 cells, ouabain 1 to 50 nM, 24 h) was “stimulated cell growth”. The “endocytosis of Na/K-ATPase α1 (α1-positive vesicles)” value (Na/K-ATPase α1 [8]) was “many al-positive vesicles were accumulated” and the “ouabain-induced cell growth response (MTT)” value (C2-9 cells) was “abolished ouabain-induced cell growth stimulation”.
